From US7759369B2, “Pyridine compounds for the treatment of prostaglandin mediated diseases” (Glaxo Group Limited, priority 2004, dated 2010)
Counter-ions that a name gives are not always drawn.

Tests used:
[1] = target: T1, EP1 receptors (Homo sapiens, UniProt P34995); test: Binding assay for the human prostanoid EP1 receptor (competition with [3H]-PGE2); set-up: expressed in transfected cells; host or cells: CHO-K1 (membrane fraction); settings: averages of a number of experiments; Example 3 as sodium salt; read-out: pIC50 value in the binding assay for the human prostanoid EP1 receptor (converted)
T1 sequence (P34995 1-402): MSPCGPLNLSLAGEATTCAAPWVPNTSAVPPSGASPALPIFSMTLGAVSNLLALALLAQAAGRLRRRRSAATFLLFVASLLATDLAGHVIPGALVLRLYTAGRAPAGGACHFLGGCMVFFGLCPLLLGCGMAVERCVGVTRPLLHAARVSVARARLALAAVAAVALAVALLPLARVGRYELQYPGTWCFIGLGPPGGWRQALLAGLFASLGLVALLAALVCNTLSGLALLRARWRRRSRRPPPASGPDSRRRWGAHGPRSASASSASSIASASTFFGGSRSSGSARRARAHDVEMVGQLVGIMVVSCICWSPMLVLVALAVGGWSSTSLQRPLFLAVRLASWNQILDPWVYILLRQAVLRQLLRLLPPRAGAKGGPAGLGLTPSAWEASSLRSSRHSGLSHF
Method: Binding Assay for the Human Prostanoid EP1 Receptor
Competition assay using [^3H]-PGE2.
Compound potencies are determined using a radioligand binding assay. In this assay compound potencies are determined from their ability to compete with tritiated prostaglandin E2 ([^3H]-PGE2) for binding to the human EP1 receptor.
This assay utilises Chinese hamster ovary-K1 (CHO-K1) cells into which a stable vector containing the EP1 cDNA has previously been transfected. Cells are cultured in suitable flasks containing culture medium such as DMEM:F-12 supplemented with 10% v/v foetal calf serum, 2 mM L-glutamine, 0.25 mg/ml geneticin, 10 μg/ml puromycin and 10 μM indomethacin.
Cells are detached from the culture flasks by incubation in calcium and magnesium free phosphate buffered saline containing 1 mM disodium ethylenediaminetetraacetic acid (Na2EDTA) and 10 μM indomethacin for 5 min. The cells are isolated by centrifugation at 250×g for 5 mins and suspended in an ice cold buffer such as 50 mM Tris, 1 mM Na2EDTA, 140 mM NaCl, 10 μM indomethacin (pH 7.4). The cells are homogenised using a Polytron tissue disrupter (2×10s burst at full setting), centrifuged at 48,000×g for 20 mins and the pellet containing the membrane fraction is washed (optional) three times by suspension and centrifugation at 48,000×g for 20 mins. The final membrane pellet is suspended in an assay buffer such as 10 mM 2-[N-morpholino]ethanesulphonic acid, 1 mM Na2EDTA, 10 mM MgCl2 (pH 6). Aliquots are frozen at −80° C. until required.
For the binding assay the cell membranes, competing compounds and [^3H]-PGE2 (3 nM final assay concentration) are incubated in a final volume of 100 μl for 30 min at 30° C. All reagents are prepared in assay buffer. Reactions are terminated by rapid vacuum filtration over GF/B filters using a Brandell cell harvester. The filters are washed with ice cold assay buffer, dried and the radioactivity retained on the filters is measured by liquid scintillation counting in Packard TopCount scintillation counter.
The data are analysed using non linear curve fitting techniques to determine the concentration of compound producing 50% inhibition of specific binding (IC50).

[2] = target: T1, EP1 receptors; test: human EP1 calcium mobilisation assay (CHO-K1 cells, PGE2, FLIPR); format: cell-based; set-up: expressed in transfected cells; host or cells: CHO-K1; settings: free bases or sodium salts; averages of a number of experiments; read-out: functional pKi value, human EP1 calcium mobilisation assay (converted)
Method: Briefly, the antagonist properties of compounds are assessed by their ability to inhibit the mobilisation of intracellular calcium ([Ca^2+]i) in response to activation of EP1 or EP3 receptors by the natural agonist hormone prostaglandin E2 (PGE2). Increasing concentrations of antagonist reduce the amount of calcium that a given concentration of PGE2 can mobilise. The net effect is to displace the PGE2 concentration-effect curve to higher concentrations of PGE2. The amount of calcium produced is assessed using a calcium-sensitive fluorescent dye such as Fluo-4, AM and a suitable instrument such as a Fluorimetric Imaging Plate Reader (FLIPR). Increasing amounts of [Ca^2+]i produced by receptor activation increase the amount of fluorescence produced by the dye and give rise to an increasing signal. The signal may be detected using the FLIPR instrument and the data generated may be analysed with suitable curve-fitting software.
The human EP1 or EP3 calcium mobilisation assay (hereafter referred to as ‘the calcium assay’) utilises Chinese hamster ovary-K1 (CHO-K1) cells into which a stable (pCIN; BioTechniques 20 (1996): 102-110) vector containing either EP1 or EP3 cDNA has previously been transfected. Cells are cultured in suitable flasks containing culture medium such as DMEM:F-12 supplemented with 10% v/v foetal calf serum, 2 mM L-glutamine, 0.25 mg/ml geneticin, 100 μM flurbiprofen and 10 µg/ml puromycin.
For assay, cells are harvested using a proprietary reagent that dislodges cells such as Versene. Cells are re-suspended in a suitable quantity of fresh culture media for introduction into a 384-well plate. Following incubation for 24 hours at 37° C. the culture media is replaced with a medium containing Fluo-4 and the detergent pluronic acid, and a further incubation takes place. Concentrations of compounds are then added to the plate in order to construct concentration-effect curves. This may be performed on the FLIPR in order to assess the agonist properties of the compounds. Concentrations of PGE2 are then added to the plate in order to assess the antagonist properties of the compounds.
The data so generated may be analysed by means of a computerised curve-fitting routine. The concentration of compound that elicits a half-maximal inhibition of the calcium mobilisation induced by PGE2 (pIC50) may then be estimated.

| IC50 [1] [nM] | Ki [2] [nM] | SMILES |
| --- | --- | --- |
| ≤ 31.6 | ≤ 31.6 | O=C(O)c1cccc(Cc2cc(Cl)ccc2OCc2ccc(Cl)cc2F)n1 [Example 3, Sodium 6-[(5-chloro-2-{[(4-chloro-2-fluorophenyl)methyl]oxy}phenyl)methyl]-2-pyridinecarboxylate] |
| ≤ 31.6 | ≤ 31.6 | O=C(O)c1cccc(Cc2cc(Cl)ccc2OCc2ccc(F)cc2F)n1 [Example 4, Sodium 6-[(5-chloro-2-{[(2,4-difluorophenyl)methyl]oxy}phenyl)methyl]-2-pyridinecarboxylate] |
| ≤ 31.6 | < 1000 | O=C(O)c1cccc(Cc2cc(Cl)ccc2OCc2cc(F)c(F)cc2F)n1 [Example 10, Sodium 6-[(5-chloro-2-{[(2,4,5-trifluorophenyl)methyl]oxy}phenyl)methyl]-2-pyridinecarboxylate] |
| ≤ 31.6 | < 1000 | O=C(O)c1cccc(Cc2cc(Cl)ccc2OCc2ccc(F)cc2Cl)n1 [Example 11, Sodium 6-[(5-chloro-2-{[(2-chloro-4-fluorophenyl)methyl]oxy}phenyl)methyl]-2-pyridinecarboxylate] |
| ≤ 31.6 | ≤ 31.6 | O=C(O)c1cccc(Cc2cc(Cl)ccc2OCc2ccc(Cl)cc2Cl)n1 [Example 12, Sodium 6-[(5-chloro-2-{[(2,4-dichlororophenyl)methyl]oxy}phenyl)methyl]-2-pyridinecarboxylate] |
| ≤ 31.6 | < 1000 | O=C(O)c1cccc(Cc2cc(Cl)ccc2OCC2CCCC2)n1 [Example 14, Sodium 6-({5-chloro-2-[(cyclopentylmethyl)oxy]phenyl}methyl)-2-pyridinecarboxylate] |
| ≤ 31.6 | ≤ 31.6 | CS(=O)(=O)NC(=O)c1cccc(Cc2cc(Cl)ccc2OCc2ccc(Cl)cc2F)n1 [Example 29, 6-[(5-Chloro-2-{[(4-chloro-2-fluorophenyl)methyl]oxy}-phenyl)methyl]-N-(methylsulphonyl)-2-pyridinecarboxamide] |
| ≤ 31.6 | < 1000 | Cc1ccc(C(=O)O)nc1Cc1cc(Cl)ccc1OCc1ccc(Cl)cc1F [Example 39, 6-[(5-Chloro-2-{[(4-chloro-2-fluorophenyl)methyl]oxy}-phenyl)methyl]-5-methyl-2-pyridinecarboxylic acid, sodium salt] |

The next lines start with the compound.

| SMILES | IC50 [1] [nM] | Ki [2] [nM] |
| --- | --- | --- |
| O=C(NS(=O)(=O)c1ccccc1)c1cccc(Cc2cc(Cl)ccc2OCc2ccc(Cl)cc2F)n1 [Example 28, 6-[(5-chloro-2-{[(4-chloro-2-fluorophenyl)methyl]oxy}phenyl)-methyl]-N-(phenylsulphonyl)-2-pyridinecarboxamide] | ≤ 31.6 | ≤ 31.6 |
| CCCS(=O)(=O)NC(=O)c1cccc(Cc2cc(Cl)ccc2OCc2ccc(Cl)cc2F)n1 [Example 30, 6-[(5-Chloro-2-{[(4-chloro-2-fluorophenyl)methyl]oxy}-phenyl)methyl]-N-(propylsulphonyl)-2-pyridinecarboxamide] | ≤ 31.6 | ≤ 31.6 |
| O=C(NS(=O)(=O)c1ccc(Br)cc1)c1cccc(Cc2cc(Cl)ccc2OCc2ccc(Cl)cc2F)n1 [Example 33, N-[(4-Bromophenyl)sulphonyl]-6-[(5-chloro-2-{[(4-chloro-2-fluorophenyl)methyl]oxy}phenyl)-methyl]-2-pyridinecarboxamide] | ≤ 31.6 | < 1000 |
| O=C(NS(=O)(=O)c1cccc(Br)c1)c1cccc(Cc2cc(Cl)ccc2OCc2ccc(Cl)cc2F)n1 [Example 34, N-[(3-Bromophenyl)sulphonyl]-6-[(5-chloro-2-{[(4-chloro-2-fluorophenyl)methyl]oxy}phenyl)-methyl]-2-pyridinecarboxamide] | ≤ 31.6 | ≤ 31.6 |
| Cc1noc(C)c1S(=O)(=O)NC(=O)c1cccc(Cc2cc(Cl)ccc2OCc2ccc(Cl)cc2F)n1 [Example 36, 6-[(5-Chloro-2-{[(4-chloro-2-fluorophenyl)methyl]oxy}-phenyl)methyl]-N-[(3,5-dimethyl-4-isoxazolyl)sulphonyl]-2-pyridinecarboxamide] | ≤ 31.6 | ≤ 31.6 |
| Fc1cc(Cl)ccc1COc1ccc(Cl)cc1Cc1cccc(-c2nnn[nH]2)n1 [Example 38, 2-[(5-Chloro-2-{[(4-chloro-2-fluorophenyl)methyl]oxy}phenyl)-methyl]-6-(1H-tetrazol-5-yl)pyridine] | ≤ 31.6 | ≤ 31.6 |
